Results: patent publication US20060009425A1, “Oral formulations of paricalcitol” (priority 2004, published 2006)

Tests used:
Type in all cases: in vivo, human
[1] = test system: biochemical bone activity markers; assay: Phase 3 TIW study, biochemical bone activity markers (Table C); details: CKD Stage 3 and 4, TIW treated subjects (Table C)
Text: Serum bone-specific alkaline phosphate and serum osteocalcin are considered more sensitive bone markers to evaluate degree of bone remodeling than urinary bone marker. […] These subjects received treatment with the oral formulations of the present invention or a placebo. The bone markers examined in these subjects were serum osteocalcin, serum bone-specific alkaline phosphatase, urinary pyridinoline, and deoxypyridinoline. If more than 1 biochemical bone activity marker measurement existed for a subject on a particular day, the higher measurement was considered to be that subject's biochemical bone activity marker measurement for that day. […] The Final Visit measurement was defined as the last biochemical bone activity marker measurement following the first dose of study drug.
(§1) The Week 11 Visit measurement was defined as the biochemical bone activity marker measurement on the day closest to the Week 11 scheduled visit, for which the possible measurements to choose from were those collected within 64 and 77 days following the first dose of study drug.
(§2) Changes from baseline to Week 11 Visit and to Final Visit in biochemical bone activity markers were compared between oral paricalcitol and placebo using an ANOVA with treatment as the factor on the combined Phase 3 all treated subject population (Table F). Also, the changes from baseline to Week 11 Visit and to Final Visit were compared between oral paricalcitol and placebo using an ANCOVA with baseline as the second factor on the combined Phase 3 all treated subject population (Table G).
The study was performed in 4 parts: a Screening Visit, a Pre-Treatment Phase, a Treatment Phase, and a Follow-Up Phase. At the Screening Visit, subjects reviewed and signed the informed consent form prior to the conduct of any study-specific screening procedures. A spot urine sample was used to calculate calcium/creatinine ratio. A blood sample was drawn for iPTH, blood urea nitrogen (BUN), albumin and serum creatinine levels. […] The serum creatinine, BUN, and albumin values were used to calculate the subject's estimated glomerular filtration rate (eGFR) using a formula derived from the “Modification of Diet in Renal Disease” (MDRD) study. Subjects with a calculated eGFR of 15 to 60 mL/min were eligible to undergo Pre-Treatment Phase procedures. The Pre-Treatment Phase was 1 to 4 weeks. During this phase, subjects had 2 scheduled office visits. The office visits could have occurred at any time over a 4-week period but must have been at least 1 day apart. During these visits, subjects were to meet laboratory criteria regarding serum iPTH, calcium, and phosphorus levels. If the subject was unable to meet these criteria, he or she may have been re-screened once after 4 weeks. […] Subjects who satisfied inclusion and exclusion criteria after a minimum of 1 week in the Pre-Treatment Phase were eligible to enter the Treatment Phase. During the Treatment Phase, subjects were to self-administer study drug 3 times weekly, on Monday, Wednesday and Friday, for a total of 24 weeks. The initial dose was 2 or 4 mcg (depending on baseline iPTH levels). Procedures to be performed during the Treatment Phase included vital signs, chemistry and hematology, urinary pyridinoline, urinary deoxypyridinoline, serum bone-specific alkaline phosphatase, serum osteocalcin, urinalysis, spot urine for calcium/creatinine ratio, and recording of adverse events and concurrent medications. Serum iPTH, calcium, phosphorus, and albumin were measured every 2 weeks. Dose adjustments were to be made according to these chemistry results for iPTH, calcium, and phosphorus. Doses may have been increased in 2 mcg increments every 4 weeks. Dose reductions were to occur according to a protocol-specified algorithm. However, dosing could have been adjusted any time if, in the judgment of the Investigator, a risk to subject safety existed.

[2] = test system: biochemical bone activity markers; assay: Phase 3 once daily study, biochemical bone activity markers (Table E); details: CKD Stage 3 and 4, daily (QD) treated subjects (Table E)
Experimental: (§3) Serum bone-specific alkaline phosphate and serum osteocalcin are considered more sensitive bone markers to evaluate degree of bone remodeling than urinary bone marker. […] As shown in Examples 5-7 and Tables C (Example 5), Table D (Example 6) and Table E (Example 7), certain biochemical bone activity marker variables were analyzed in CKD Stage 3 and 4 subjects. These subjects received treatment with the oral formulations of the present invention or a placebo. The bone markers examined in these subjects were serum osteocalcin, serum bone-specific alkaline phosphatase, urinary pyridinoline, and deoxypyridinoline. If more than 1 biochemical bone activity marker measurement existed for a subject on a particular day, the higher measurement was considered to be that subject's biochemical bone activity marker measurement for that day. […] The Final Visit measurement was defined as the last biochemical bone activity marker measurement following the first dose of study drug.
as §1, §2
(§4) During the Treatment Phase, subjects were to self-administer study drug once daily for a total of 24 weeks. The initial dose was 1 or 2 mcg (depending on baseline iPTH levels). Procedures to be performed during the Treatment Phase included vital signs, chemistry and hematology, urinary pyridinoline, urinary deoxypyridinoline, serum bone-specific alkaline phosphatase, serum osteocalcin, urinalysis, spot urine for calcium/creatinine ratio, and recording of adverse events and concurrent medications. Serum iPTH, calcium, phosphorus, and albumin were measured every 2 weeks. Dose adjustments were to be made according to these chemistry results for iPTH, calcium, and phosphorus. Doses may have been increased in 1 mcg increments every 4 weeks. Dose reductions were to occur according to a protocol-specified algorithm. However, dosing could have been adjusted any time if, in the judgment of the Investigator, a risk to subject safety existed.

[3] = test system: biochemical bone activity markers; assay: Phase 3 TIW study, biochemical bone activity markers (Table D); details: CKD Stage 3 and 4, TIW treated subjects (Table D)
Experimental: as §3, §1, §2
as §4, with “drug 3 times weekly, on Monday, Wednesday and Friday,” for “drug once daily”, “was 2” for “was 1”, “or 4” for “or 2”, “in 2” for “in 1”, “weeks.” for “weeks. Dose reductions were to occur according to a protocol-specified algorithm. However, dosing could have been adjusted any time if, in the judgment of the Investigator, a risk to subject safety existed.”

C[C@H](/C=C/[C@H](C)C(C)(C)O)[C@H]1CC[C@H]2/C(=C/C=C3C[C@@H](O)C[C@H](O)C3)CCC[C@]12C [Paricalcitol, 19-nor-1α,3β,25-trihydroxy-9,10-secoergosta-5(Z); 7(E),22(E)-triene]
Serum Bone-Specific Alkaline Phosphatase, Change from Baseline (SE) to Final [1]: −7.922 (1.3520) mcg/L | Serum Bone-Specific Alkaline Phosphatase, Change from Baseline (SE) to Week 11 [1]: −4.673 (1.2590) mcg/L | Serum Osteocalcin, Change from Baseline (SE) to Final [1]: −19.00 (4.381) ng/mL | Serum Osteocalcin, Change from Baseline (SE) to Week 11 [1]: −4.23 (4.386) ng/mL | Urinary Deoxypyridinoline, Change from Baseline (SE) to Final [1]: −0.0084 (0.00375) nmol/mg Creat | Urinary Deoxypyridinoline, Change from Baseline (SE) to Week 11 [1]: −0.0116 (0.00354) nmol/mg Creat | Urinary Pyridinoline, Change from Baseline (SE) to Final [1]: −4.06 (2.276) nmol/mmol Creat | Urinary Pyridinoline, Change from Baseline (SE) to Week 11 [1]: −5.46 (2.545) nmol/mmol Creat | Serum Bone-Specific Alkaline Phosphatase, Change from Baseline (SE) to Final [2]: −7.575 (1.3976) mcg/L | Serum Bone-Specific Alkaline Phosphatase, Change from Baseline (SE) to Week 11 [2]: −5.383 (1.0482) mcg/L | Serum Osteocalcin, Change from Baseline (SE) to Final [2]: −27.07 (5.544) ng/mL | Serum Osteocalcin, Change from Baseline (SE) to Week 11 [2]: −0.22 (4.968) ng/mL | Urinary Deoxypyridinoline, Change from Baseline (SE) to Final [2]: 0.0100 (0.01392) nmol/mg Creat | Urinary Deoxypyridinoline, Change from Baseline (SE) to Week 11 [2]: −0.0216 (0.01018) nmol/mg Creat | Urinary Pyridinoline, Change from Baseline (SE) to Final [2]: 0.26 (4.452) nmol/mmol Creat | Urinary Pyridinoline, Change from Baseline (SE) to Week 11 [2]: −5.27 (3.884) nmol/mmol Creat | Serum Bone-Specific Alkaline Phosphatase, Change from Baseline (SE) to Final [3]: −8.179 (1.2010) mcg/L | Serum Bone-Specific Alkaline Phosphatase, Change from Baseline (SE) to Week 11 [3]: −5.078 (0.9420) mcg/L | Serum Osteocalcin, Change from Baseline (SE) to Final [3]: −18.92 (3.973) ng/mL | Serum Osteocalcin, Change from Baseline (SE) to Week 11 [3]: −6.96 (3.259) ng/mL | Urinary Deoxypyridinoline, Change from Baseline (SE) to Final [3]: −0.0182 (0.0062) nmol/mg Creat | Urinary Deoxypyridinoline, Change from Baseline (SE) to Week 11 [3]: −0.0144 (0.00813) nmol/mg Creat | Urinary Pyridinoline, Change from Baseline (SE) to Final [3]: −7.11 (2.828) nmol/mmol Creat | Urinary Pyridinoline, Change from Baseline (SE) to Week 11 [3]: −4.87 (3.725) nmol/mmol Creat
